Measurements taken from US20250295113A1, “COMPOSITION AND METHOD FOR CONTROLLING WEEDS” (priority 2022, published 2025).

Legend:
[1] = test system: St Augustinegrass variety 'Floratam'; assay: Example 1: Floratam St Augustinegrass phytotoxicity trial; details: quinclorac alone, both formulations, 573 g ai/ha, two applications on 21-day interval
Torpedograss = assay: Example 3: Torpedograss control trial; assay type: in vivo, Torpedograss (Panicum repens); details: quinclorac 573 g ai/ha with and without metcamifen 75 g ai/ha; two applications, 21-day interval
Text: (§1) Two applications were made on a 21-day interval.

blanket crabgrass = assay: Example 4: blanket crabgrass control trial in Floratam St Augustinegrass; assay type: in vivo, blanket crabgrass (Digitaria serotina); details: quinclorac 573 g ai/ha; two applications, 21-day interval
Text: as §1

With `O=C(O)c1c(Cl)ccc2cc(Cl)cnc12` [Quinclorac, 3,7-dichloro-8-quinolinecarboxylic acid] the “injury to Floratam St Augustinegrass (in words)” value [1] was “significant injury”, the “Torpedograss control / efficacy (in words)” value (Torpedograss) was “provided control of Torpedograss” and the “blanket crabgrass control (in words)” value (blanket crabgrass) was “excellent, significant control”.
